Two compounds from ChEMBL document CHEMBL1141031, “Stereo-controlled synthesis of novel photoreactive gamma-secretase inhibitors” (Bioorg Med Chem Lett, 2009) can be followed below.

The source made the active and inactive calls. The calls are words filed in the database; no cut-off is given here.

The target of one experiment is Gamma-secretase. Description: Inhibition of human gamma secretase assessed as effect on C100Flag substrate cleavage. The format is protein-complex assay.
The target in experiment [1] is Presenilin-1 (Homo sapiens) (UniProt P49768). The experiment can be described thus: Binding affinity to presenilin-1 in UV irradiated human HeLa cells assessed as enzyme photolabeling at 10 uM in presence of 2 uM L-685,458 by SDS-PAGE based photocross linking study. The class given is cell-based.
The target is the same in experiment [2]. The experiment can be described thus: Binding affinity to presenilin-1 in UV irradiated human HeLa cells assessed as enzyme photolabeling at 10 uM by SDS-PAGE based photocross linking study. The format is cell-based.

For the compound `COC(=O)[C@H](Cc1ccccc1)NC(=O)[C@H](CC(C)C)NC(=O)[C@H](Cc1ccccc1)C[C@@H](O)[C@H](Cc1ccc(C(=O)c2ccccc2)cc1)NC(=O)OC(C)(C)C`, at Gamma-secretase, the IC50 (commonly the concentration that gives 50% inhibition) worked out at 0.7 nM.
Regarding `CC(C)C[C@H](NC(=O)[C@H](Cc1ccccc1)C[C@@H](O)[C@H](Cc1ccc(C(=O)c2ccccc2)cc1)NC(=O)OC(C)(C)C)C(=O)N[C@@H](Cc1ccccc1)C(=O)NCCCCCNC(=O)CCCCC1SC[C@H]2NC(=O)N[C@@H]12` (some centres undefined), in experiment [1], the outcome was inactive. For the same compound, the outcome in experiment [2] was Active. At Gamma-secretase, the IC50 was determined as 0.6 nM.
